Assay: Aerodynamic particle size distribution (APSD) by Next Generation Impactor (NGI), fine particle mass and its stability
Assay type: physicochemical
Details: 1000 μg dose load in 20 mg formulation, NGI 60 Lmin^−1, F1 device
Method: The aerodynamic particle size distribution (APSD) of the formulations was evaluated with the Next Generation Impactor (NGI) tested at a flow rate of 80 Lmin^−1 in the GyroHaler® device (Compound 1—Gentisic Acid) and 60 Lmin^−1 in the F1 device (Compound 1, Compound 1—Maleic Acid and Compound 1—Adipic Acid). One dose was collected for each NGI measurement. Compound 1 deposition on the NGI components was measured by a gradient high performance liquid Chromatography (HPLC) method with UV detection.
The co-crystals with adipic acid and maleic acid were tested in a Vectura unit dose device as disclosed in WO2010/086285, and the gentisic acid co-crystal was tested in a GyroHaler® device.

## Cn1c(=O)n([C@H]2CCCN(C(=O)CC#N)C2)c2nc(-c3cnn4ccccc34)ccc21 [Compound 1, (S)-3-(3-(1-methyl-2-oxo-5-(pyrazolo[1,5-a]pyridine-3-yl)-1H-imidazo[4,5-b]pyridine-3(2H)-yl)piperidin-1-yl)-3-oxopropanenitrile]
T = 0 w
  Fine particle Mass (μg < 5 μm): 418.2 µg
T = 4 w
  Fine particle Mass (μg < 5 μm): 450.7 µg
T = 12 w
  Fine particle Mass (μg < 5 μm): 415.3 µg

From US10155757B2, “Crystalline form of a JAK3 kinase inhibitor” (VECTURA LIMITED, priority 2015, dated 2018)
